Results reported in US10335409B2 (priority 2012, dated 2019).
Read-outs that look alike come from different tables or passages of the source.

Tests used:
Format in all cases: cell-based, hepatitis C virus
[1] = tested on: genotype 1b NS3/4a protease inhibitor resistant variant D168A transient HCV replicon in Huh-7-derived cells; assay: Transient-transfected HCV replicon EC50, genotype 1b D168A; conditions: Hepatitis C virus, 72 h, read-out: EC50 1B D168A, transient-transfected replicon genotype 1b D168A resistant variant, 72 h
[2] = tested on: genotype 1a (H77) stable HCV replicon in Huh-7-derived cells; assay: Stable subgenomic HCV replicon EC50, genotype 1a (Renilla luciferase); conditions: Hepatitis C virus, stable replicon genotype 1a, 72 h, read-out: EC50 1A RLUC
Description: (§1) Antiviral potency (EC50) was determined in both stable subgenomic HCV replicon cell lines and transient-transfected HCV replicon cells. The term half maximal effective concentration (EC50) refers to the concentration of a drug which induces a response halfway between the baseline and maximum after the exposure time specified below.
(§2) Stable subgenomic HCV replicons for genotype 1a, 1b, 2a, 3a, and 4a were established in Huh-7-derived cells as described by Lohmann et al (Lohmann V, Korner F, Koch J, et al Replication of subgenomic hepatitis C virus RNAs in a hepatoma cell line. Science 1999; 285:119-3) Each stable cell line contains a bicistronic HCV replicon that encodes a humanized Renilla luciferase (hRLuc) reporter gene fused to a selectable neomycin-resistance gene, followed by an EMCV IRES and the NS3-NS5B coding region of HCV. […] Luciferase activity was measured as a marker for intracellular HCV replication levels.
(§3) The genotype 1a stable replicon was derived from the H77 HCV strain and contained adaptive mutations P1496L and S2204I. The genotype 1b stable replicon was derived from the Con1 HCV strain and contained adaptive mutations E1202G, T1280I and K1846T. […] The genotype 3a stable replicon was derived from the S52 HCV strain and contained adaptive mutations P1121L, A1198T and S2210I (equivalent to S2204I in genotype 1). The genotype 4a stable replicon was derived from the ED43 HCV strain and contained adaptive mutations Q1691R and S2204I. All replicon cell lines were propagated in Huh-7-derived cells and maintained in Dulbecco's modified Eagle's Medium (DMEM) supplemented with 10% fetal bovine serum (FBS) and 0.5 mg/mL G418.
(§4) To perform EC50 assays, cells from each HCV replicon were dispensed into 384-well plates. Compounds were dissolved in DMSO at a concentration of 10 mM and diluted in DMSO using an automated pipetting instrument. Three-fold serially diluted compounds were directly added to the cells using an automated instrument. […] Seventy-two hours later, cells were lysed and Renilla luciferase activity were quantified as recommended by the manufacturer (Promega-Madison, Wis.). Non-linear regression was performed to calculate EC50 values.

[3] = tested on: genotype 1a NS3/4a protease inhibitor resistant variant R155K transient HCV replicon in Huh-7-derived cells; assay: Transient-transfected HCV replicon EC50, genotype 1a R155K; conditions: Hepatitis C virus, 72 h, read-out: EC50 1A R155K, transient-transfected replicon genotype 1a R155K resistant variant, 72 h
[4] = tested on: genotype 1a (H77) wild type transient HCV replicon in Huh-7-derived cells; assay: Transient-transfected HCV replicon EC50, genotype 1a wild type; conditions: Hepatitis C virus, 72 h, read-out: EC50 1A WT
[5] = tested on: genotype 2a (JFH-1) stable HCV replicon in Huh-7-derived cells; assay: Stable subgenomic HCV replicon EC50, genotype 2a (Renilla luciferase); conditions: Hepatitis C virus, stable replicon genotype 2a, 72 h, read-out: EC50 2A RLUC
Description: as §1, §2, §3, §4

[6] = tested on: genotype 1b (Con1) wild type transient HCV replicon in Huh-7-derived cells; assay: Transient-transfected HCV replicon EC50, genotype 1b wild type; conditions: Hepatitis C virus, 72 h, read-out: EC50 1B WT
[7] = tested on: genotype 1b (Con1) stable HCV replicon in Huh-7-derived cells; assay: Stable subgenomic HCV replicon EC50, genotype 1b (Renilla luciferase); conditions: Hepatitis C virus, stable replicon genotype 1b, 72 h, read-out: EC50 1B RLUC
Description: as §1, §2, §3, §4

[8] = tested on: genotype 4a (ED43) stable HCV replicon in Huh-7-derived cells; assay: Stable subgenomic HCV replicon EC50, genotype 4a (Renilla luciferase); conditions: Hepatitis C virus, 72 h, read-out: EC50 4A RLUC
Description: as §1, §2, §3, §4

[9] = tested on: genotype 3a (S52) stable HCV replicon in Huh-7-derived cells; assay: Stable subgenomic HCV replicon EC50, genotype 3a (Renilla luciferase); conditions: Hepatitis C virus, 72 h, read-out: EC50 3A RLUC
Description: as §1, §2, §3, §4

[10] = tested on: genotype 3a (S52) wild type transient HCV replicon in Huh-7-derived cells; assay: Transient-transfected HCV replicon EC50, genotype 3a wild type; conditions: Hepatitis C virus; transient-transfected replicon genotype 3a wild type, 72 h; read-out: EC50 3A WT
[11] = transient-transfected replicon genotype 1a wild type
[12] = transient-transfected replicon genotype 1b wild type

SMILES	EC50 [1]	EC50 [2]	EC50 [3]	EC50 [4]	EC50 [5]	EC50 [6]	EC50 [7]	EC50 [8]	EC50 [9]	EC50 [4, 11]	EC50 [6, 12]	EC50 [10]
COc1ccc2nc3c(nc2c1)O[C@H]1CN(C(=O)[C@H](C(C)(C)C)NC(=O)O[C@@H]2C[C@H]2CCCCC3)[C@H](C(=O)N[C@]2(C(=O)NS(=O)(=O)C3CC3)C[C@H]2C(F)F)[C@@H]1C [Example 19, (1aR,5S,8S,9S,10R,22aR)-5-tert-butyl-N-[(1R,2R)-1-[(cyclopropylsulfonyl)carbamoyl]-2-(difluoromethyl)cyclopropyl]-14-methoxy-9-methyl-3,6-dioxo-1,1a,3,4,5,6,9,10,18,19,20,21,22,22a-tetradecahydro-8H-7,10-methanocyclopropa[18,19][1,10,3,6]dioxadiazacyclononadecino[11,12-b]quinoxaline-8-carboxamide]	0.028 µM	0.004 µM	0.0034 µM	0.0021 µM	0.0046 µM	0.0011 µM	0.0026 µM	0.0031 µM	0.089 µM	–	–	–
COc1ccc2nc3c(nc2c1)O[C@H]1CN(C(=O)[C@H](C(C)(C)C)NC(=O)O[C@@]2(C)C[C@@H]2CCCCC3)[C@H](C(=O)N[C@]2(C(=O)NS(=O)(=O)C3(C)CC3)C[C@H]2C(F)F)[C@@H]1C [Example 45, (1aS,5S,8S,9S,10R,22aS)-5-tert-butyl-N-[(1R,2R)-2-(difluoromethyl)-1-{[(1-methylcyclopropyl)sulfonyl]carbamoyl}cyclopropyl]-14-methoxy-1a,9-dimethyl-3,6-dioxo-1,1a,3,4,5,6,9,10,18,19,20,21,22,22a-tetradecahydro-8H-7,10-methanocyclopropa[18,19][1,10,3,6]dioxadiazacyclononadecino[11,12-b]quinoxaline-8-carboxamide]	0.088 µM	0.021 µM	0.035 µM	–	0.024 µM	–	0.0083 µM	0.013 µM	0.549 µM	0.013 µM	0.0053 µM	–
COc1ccc2nc3c(nc2c1)O[C@H]1CN(C(=O)[C@H](C(C)(C)C)NC(=O)O[C@@H]2CCC[C@H]2CCCCC3)[C@H](C(=O)N[C@]2(C(=O)NS(=O)(=O)C3CC3)C[C@H]2C(F)F)[C@@H]1C [Example 28, (3aR,7S,10S,11S,12R,24aR)-7-tert-butyl-N-[(1R,2R)-1-[(cyclopropylsulfonyl)carbamoyl]-2-(difluoromethyl)cyclopropyl]-16-methoxy-11-methyl-5,8-dioxo-1,2,3,3a,5,6,7,8,11,12,20,21,22,23,24,24a-hexadecahydro-10H-9,12-methanocyclopenta[18,19][1,10,3,6]dioxadiazacyclononadecino[11,12-b]quinoxaline-10-carboxamide]	0.054 µM	0.0067 µM	0.009 µM	–	0.0062 µM	–	0.0046 µM	0.0041 µM	0.266 µM	0.003 µM	0.0034 µM	–
CC[C@@H]1[C@@H]2CN(C(=O)[C@H](C(C)(C)C)NC(=O)O[C@@H]3C[C@H]3CCCCCc3nc4ccc(OC)cc4nc3O2)[C@@H]1C(=O)N[C@]1(C(=O)NS(=O)(=O)C2CC2)C[C@H]1CC [Example 3, (1aR,5S,8S,9S,10R,22aR)-5-tert-butyl-N-{(1R,2R)-1-[(cyclopropylsulfonyl)carbamoyl]-2-ethylcyclopropyl}-9-ethyl-14-methoxy-3,6-dioxo-1,1a,3,4,5,6,9,10,18,19,20,21,22,22a-tetradecahydro-8H-7,10-methanocyclopropa[18,19][1,10,3,6]dioxadiazacyclononadecino[11,12-b]quinoxaline-8-carboxamide]	0.128 µM	0.0117 µM	0.032 µM	–	0.028 µM	–	0.0098 µM	0.01 µM	0.546 µM	0.0066 µM	0.0035 µM	–
CC[C@@H]1[C@@H]2CN(C(=O)[C@H](C(C)(C)C)NC(=O)O[C@@H]3CCC[C@H]3CCCCCc3nc4ccc(OC)cc4nc3O2)[C@@H]1C(=O)N[C@]1(C(=O)NS(=O)(=O)C2(C)CC2)C[C@H]1C(F)F [Example 6, (3aR,7S,10S,11S,12R,24aR)-7-tert-butyl-N-[(1R,2R)-2-(difluoromethyl)-1-{[(1-methylcyclopropyl)sulfonyl]carbamoyl}cyclopropyl]-11-ethyl-16-methoxy-5,8-dioxo-1,2,3,3a,5,6,7,8,11,12,20,21,22,23,24,24a-hexadecahydro-10H-9,12-methanocyclopenta[18,19][1,10,3,6] dioxadiazacyclononadecino[11,12-b]quinoxaline-10-carboxamide]	0.216 µM	0.035 µM	0.058 µM	–	0.034 µM	–	0.036 µM	0.034 µM	1.36 µM	0.026 µM	0.011 µM	–
COc1ccc2nc3c(nc2c1)O[C@H]1CN(C(=O)[C@H](C(C)(C)C)NC(=O)O[C@@H]2C[C@H]2CCCCC3)[C@H](C(=O)N[C@]2(C(=O)NS(=O)(=O)C3(C)CC3)C[C@H]2CCF)[C@@H]1C [Example 23, (1aR,5S,8S,9S,10R,22aR)-5-tert-butyl-N-[(1R,2S)-2-(2-fluoroethyl)-1-{[(1-methylcyclopropyl)sulfonyl]carbamoyl}cyclopropyl]-14-methoxy-9-methyl-3,6-dioxo-1,1a,3,4,5,6,9,10,18,19,20,21,22,22a-tetradecahydro-8H-7,10-methanocyclopropa[18,19][1,10,3,6]dioxadiazacyclononadecino[11,12-b]quinoxaline-8-carboxamide]	0.173 µM	0.013 µM	0.036 µM	–	0.023 µM	–	0.0075 µM	0.0099 µM	0.587 µM	0.0095 µM	0.0036 µM	–
CC[C@@H]1[C@@H]2CN(C(=O)[C@H](C(C)(C)C)NC(=O)O[C@@H]3C[C@H]3CCCCC(F)c3nc4ccc(OC)cc4nc3O2)[C@@H]1C(=O)N[C@]1(C(=O)NS(=O)(=O)C2(C)CC2)C[C@H]1C(F)F (stereo partly drawn) [Example 90, (1aR,5S,8S,9S,10R,22aR)-5-tert-butyl-N-[(1R,2R)-2-(difluoromethyl)-1-{[(1-methylcyclopropyl)sulfonyl]carbamoyl}cyclopropyl]-9-ethyl-18-fluoro-14-methoxy-3,6-dioxo-1,1a,3,4,5,6,9,10,18,19,20,21,22,22a-tetradecahydro-8H-7,10-methanocyclopropa[18,19][1,10,3,6]dioxadiazacyclononadecino[11,12-b]quinoxaline-8-carboxamide]	–	0.012 µM	–	–	0.0088 µM	–	0.0096 µM	0.0104 µM	0.114 µM	–	–	0.043 µM
